Reference: patent publication US20260151431A1, “ACTIVATED STEM CELLS AND SYSTEMIC TREATMENT METHODS FOR INFECTED WOUNDS” (Colorado State University Research Foundation, priority 2015, published 2026)

What was measured:
inflammatory monocytes = assay type: in vivo, mice; conditions: chronic S. aureus infected wounds; i.v. MSC; compared to untreated control animals
Procedure: Studies were done to investigate the impact of activated MSC on host immune responses, including monocyte, macrophage, and neutrophil responses. The numbers of monocytes migrating into wound tissues was determined by use of reporter mice whose inflammatory monocytes all expressed GFP. Wounds from S. aureus infected mice were immunostained for detection of inflammatory monocytes.

[1] = tested on: highly antibiotic-resistant strains of bacteria; test: In vitro killing of highly antibiotic-resistant bacteria by activated MSC and antibiotic; assay type: cell-based; conditions: triplicate cultures, assessed 4 h later; antibiotic at very high doses
Procedure: Using a similar experimental design as described in Example 9, supra, highly antibiotic-resistant strains of bacteria were incubated with activated MSC alone, antibiotics alone (cefazolin (cefa)), or antibiotics+activated MSC in triplicate cultures and bacterial killing assessed 4 h later.

| Molecule | number of monocytes infiltrating the wounds (inflammatory monocytes) | bacterial killing [1] |
| --- | --- | --- |
| amoxicillin-clavulanic acid [antibiotics] | relatively sparse population of monocytes |  |
| Cc1nnc(SCC2=C(C(=O)O)N3C(=O)[C@@H](NC(=O)Cn4cnnn4)[C@H]3SC2)s1 [cefazolin] |  | little bacterial killing |
